# Experimental data taken from patent US11076597B2, “High stress resistant plant growth regulator and preparation method and use thereof” (SHANGHAI INSTITUTES FOR BIOLOGICAL SCIENCES, CHINESE …, priority 2015, dated 2021).
# pEC50: −log10 of the molar value. “Also recorded” adds a separate entry of the source. Like-named read-outs stand apart in the source and are kept apart here.
# Key:
# [1] = tested on: soybean GmPYL6 + Arabidopsis AtHAB1; test: AlphaScreen assay: promotion of the interaction of soybean GmPYL6 with Arabidopsis HAB1; assay type: binding, soybean (GmPYL6); Arabidopsis thaliana (HAB1); details: FIG. 13a; 6×His-SUMO-tagged soybean GmPYL6, Biotin-tagged Arabidopsis HAB1 (aa 172-511), 100 nM each; pH 7.4; 1.5 h room temperature
# Procedure: After incubating for 1.5 hours at room temperature in the dark, it was placed into an Envision Plate Reader (available from Perkin Elmer) under the programmed AlphaScreen procedure for readings.
# [2] = tested on: wheat; test: Leaf transpiration experiment, wheat; assay type: in vivo; details: 100 μM spray 18 days after sowing, one day after spraying; FIG. 16
# Procedure: ABA synthesis mutant aba2-1 was used in Arabidopsis leaf transpiration experiment. […] Therefore, this mutant is used to exclude the effect of endogenous ABA on the transpiration experiment. The plants were sprayed with a solution containing 0.05% tween-20 and corresponding concentrations of (+)-ABA/0224/0304/0706/0715/0428 or 0.05% Tween-20 and 0.05% DMSO (control) after three weeks of continuous watering with an amount of 1.2 ml/pot. Leaf transpiration experiments of soybeans were conducted at 26° C. with long-day lighting and soybeans were sprayed with a solution containing 0.1% tween-20 and 20 μM (+)-ABA/0224/0304 compound or 0.1% Tween-20 and 0.05% DMSO (control) 14 days after sowing with an amount of 4 ml/pot; the leaf transpiration experiments of cottons were sprayed with a solution containing 0.1% tween-20 and 20 μM (+)-ABA/0224 compound or 0.1% Tween-20 and 0.05% DMSO, respectively, 25 days after sowing with an amount of 4 ml/pot; the leaf transpiration experiments of wheats were sprayed with a solution containing 0.1% tween-20 and 100 μM (+)-ABA/0224 compound or 0.1% Tween-20 and 0.05% DMSO (control) 18 days after sowing with an amount of 6 ml/pot. […]
# In this experiment, the temperature change of leaf surface was observed and recorded by an infrared camera, thus reflecting the strength of plant transpiration. […]
# [3] = target: T1, PYR1 receptor-HAB1 protein phosphatase complex (Arabidopsis thaliana, UniProt O49686); test: AlphaScreen assay: promotion of PYR1 receptor binding to PP2C protein phosphatase HAB1; details: 6×His-SUMO-tagged PYR1 (whole coding sequence), Biotin-tagged HAB1 (aa 172-511), 100 nM each, pH 7.4, 1.5 h room temperature
# T1 construct: made in house; host or cells: E. coli BL21 (DE3)
# T1 sequence (O49686 1-191): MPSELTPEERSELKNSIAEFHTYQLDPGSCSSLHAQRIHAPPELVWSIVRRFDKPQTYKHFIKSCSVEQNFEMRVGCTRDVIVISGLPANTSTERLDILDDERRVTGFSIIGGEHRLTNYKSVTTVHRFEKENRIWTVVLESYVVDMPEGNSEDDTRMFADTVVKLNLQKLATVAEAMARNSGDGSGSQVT
# T1 sequence (Q9CAJ0 172-511 partner limits assumed): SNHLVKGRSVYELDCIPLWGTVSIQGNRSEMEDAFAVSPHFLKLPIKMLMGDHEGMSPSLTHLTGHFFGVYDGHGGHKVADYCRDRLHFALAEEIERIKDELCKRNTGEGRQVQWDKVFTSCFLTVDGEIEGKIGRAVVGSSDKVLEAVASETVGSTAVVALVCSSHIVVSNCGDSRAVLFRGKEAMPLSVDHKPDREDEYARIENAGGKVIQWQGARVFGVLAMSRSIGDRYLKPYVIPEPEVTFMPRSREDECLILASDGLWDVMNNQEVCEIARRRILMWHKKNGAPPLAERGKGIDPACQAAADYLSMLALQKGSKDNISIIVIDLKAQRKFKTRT
# Description: The construction method of recombinant plasmids for the Arabidopsis thaliana genes PYL1 (amino acid sequence 36-211), PYL2 (amino acid sequence 14-188) with dual tags of 6×His and SUMO sequence and the Arabidopsis thaliana gene HAB1 (amino acid sequence 172-511) with the Biotin tag sequence is described in detail in “A gate-latch-lock mechanism for hormone signaling by abscisic acid receptors” (Nature, Vol 462, 2009). The construction method of recombinant plasmids for PYR1 and PYL7 (whole gene coding sequence) and Soybean GmPYL6 and rice OsPYL2 with dual tags of 6×His and SUMO sequence is the same as that for Arabidopsis PYL2.
# The above recombinant plasmid is transformed into competent cell of E. coli BL21 (DE3) (purchased from NEB company), and inoculated into 200 ml of LB liquid medium containing Amp resistance (purchased from OXOID company) and cultured overnight at 37° C. at 200 rpm; and inoculated into 2 L of LB liquid medium containing Amp resistance at a ratio of 1:50-1:100 for an extended culture, and cultured at 37° C., 200 rpm for 3-4 hours, and at a low temperature of 16° C. until OD600 is about 0.8-1.0. Recombinant plasmids for PYR1/PYL1/PYL2/PYL7/GmPYL6/OsPYL2 with dual tags of 6×His and SUMO sequence were induced overnight with 100 μM of IPTG while HAB1 recombinant plasmid with the Biotin tag sequence was induced simultaneously with 100 μM of IPTG and 40 μM of biotin.
# After 16 hours of induction, the bacterial solution was centrifuged at 4000 rpm for 20 minutes at 4° C. in a low-speed high-capacity centrifuge, and the bacteria cells were collected. Bacteria cells were resuspended in 50 ml of extraction buffer (containing 20 mM Tris, pH 8.0, 200 mM NaCl and 10% (v/v) glycerol) for per 2 L of bacterial solution and then subjected to pressure-breaking at […] and 4° C. for 3-5 times. The broken cells were subjected to ultracentrifugation, centrifuged at 16000 rpm for 30 minutes, and this process was repeated twice. The supernatant was collected and subjected to an affinity chromatography column.
# For PYR/PYL proteins with dual tags of 6×His and SUMO sequences, 50 ml of affinity chromatography Ni column (50 ml Ni-NTA column, available from GE) was used. Firstly, the column was equilibrated with 600 ml of 10% buffer B (containing 20 mM Tris, PH 8.0, 200 mM NaCl, 500 mM imidazole and 10% glycerol), and then eluted with 200 ml of 50% buffer B and finally eluted with 100 ml of 100% buffer B. Proteins for crystal analysis were mixed with ulp1 enzyme at a molar ratio of 1000:1 for enzymatic dialysis overnight. The digested proteins were subjected to affinity chromatography on a Ni column once more. The collected solution was subjected to a HiLoad 26/60 Superdex200 gel filtration column (commercially available from GE) and eluted with an elution solution (containing 25 mM Tris, pH 8.0, 200 mM ammonium acetate, 1 mM dithiotreitol and 1 mM EDTA) to further separate and purify the protein.
# For a HAB1 protein with a Biotin tag sequence, it was subjected to a 50 ml MBP affinity column (available from GE). The column was firstly equilibrated with 600 ml of 10% buffer C (containing 20 mM Tris, pH 8.0, 200 mM NaCl, 10 mM Maltose and 10% Glycerol), and eluted with 200 ml of 50% buffer C and finally eluted with 100 ml of 100% buffer C. […]
"pEC50 ([3]; FIG. 2a, read-out: EC50)",Compound,pEC50 [1],leaf temperature versus DMSO control (leaf transpiration) [2],"pEC50 ([3]; EC50, FIG. 2a)","pEC50 ([3]; EC50, FIG. 2h)"
–,"CC1=CC(=O)CC(C)(C)[C@@]1(O)/C=C/C(C)=C\C(=O)O [ABA, Abscisic Acid, reference compound]",7.05,still significant higher than that of plants in DMSO-sprayed control group,5.45,5.37
7.05,CCCN1C(=O)OC(C)c2cc(NS(=O)(=O)Cc3c(F)c(F)c(C)c(F)c3F)ccc21 (centres unmarked) [Compound 0224],–,significantly reduce the transpiration rate of the wheat leaf; also recorded: still significant higher than that of plants in DMSO-sprayed control group,–,–
6.83,CCCN1C(=O)OC(C)(C)c2cc(NS(=O)(=O)Cc3c(F)c(F)c(C)c(F)c3F)ccc21 [Compound 0304],–,–,–,–
–,CCCN1C(=O)OCc2cc(NS(=O)(=O)Cc3c(F)c(F)c(C)c(F)c3F)ccc21 [Compound 0428],8.20,–,–,–
